The values below come from US6362369B1, “Phthalic acid diamide derivatives fluorine-containing aniline compounds as starting material, agricultural and horticultural insecticides, and a method for application of the insecticides” (Nihon Nohyaku Co., Ltd., priority 1997, dated 2002).

The structures appear in SMILES notation.

Common to all, as to assay type: in vivo
Assay [1] concerns diamondback moth (Plutella xylostella). Briefly: Insecticidal effect on diamondback moth (Test Example 1). The following applies: for Insecticidal effect on diamondback moth (Test Example 1), judged grade: mortality judged according to the criterion shown in Test Example 1. The procedure, abridged:
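Triplicate groups of 10 insects were scored: six days after immersion of oviposited Chinese cabbage seedlings and holding at 25 °C post air-drying, hatched larvae were counted. Mortality derived from these counts and insecticidal effect judged by a set criterion.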

Assay [2] concerns common cutworm (Spodoptera Litura). Briefly: Insecticidal effect on common cutworm (Test Example 2). The following applies: 500 ppm, eight days after inoculation, 25° C.; for Insecticidal effect on common cutworm (Test Example 2), judged grade: cabbage leaf dip, second-instar larvae. The procedure, abridged: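 Mortality was scored 8 days post-inoculation, using three groups of 10 second-instar larvae kept at 25 °C in closed 9 cm dishes on air-dried treated material. The insecticidal effect was graded from calculated mortality by a set criterion.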

Assay [3] concerns rice leafroller (Cnaphalocrocis medinalis). The experiment in a line: Insecticidal effect on rice leafroller (Test Example 3). The following applies: 500 ppm, four days after inoculation, 25° C., humidity 70%; for Insecticidal effect on rice leafroller (Test Example 3), judged grade: rice lamina dip, third-instar larvae. The procedure, abridged:
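Insecticidal effect is judged by a predefined criterion from dead/alive counts four days after infesting air-dried lamina with third-instar larvae, kept on moistened filter paper at 25° C, 70% humidity.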

As to `Cc1cc(C(F)(F)C(F)(F)C(F)(F)C(F)(F)F)ccc1NC(=O)c1c(I)cccc1C(=O)NC(C)C` [compound 440], the “Insecticidal effect, Test Example 1” value in assay [1] (diamondback moth, judged by the mortality criterion of Test Example 1) is given as “A (100)”. The “Insecticidal effect, Test Example 2” value in assay [2] (cabbage leaf immersed, second-instar larvae of common cutworm) is listed as “C (89-80)”. Moreover, the “Insecticidal effect, Test Example 3” value in assay [3] (rice lamina immersed, third-instar larvae of rice leafroller) is “B (99-90)”.

Take `Cc1cc(OC(F)(F)C(F)(Br)C(F)(F)F)ccc1NC(=O)c1c(I)cccc1C(=O)NC(C)C` (stereo not drawn) [compound 446]: the “Insecticidal effect on diamondback moth (Test Example 1), judged grade” value (shortened to “Insecticidal effect on diamondback moth”) in assay [1] is “A (100)”. For the same compound, in assay [2], the “Insecticidal effect on common cutworm (Test Example 2), judged grade” value (shortened to “Insecticidal effect on common cutworm”) is listed as “A (100)”. Besides, the “Insecticidal effect on rice leafroller (Test Example 3), judged grade” value (“Insecticidal effect on rice leafroller” for short) in assay [3] is on record as “A (100)”.

On to `Cc1cc(OCC(F)(F)C(F)F)ccc1NC(=O)c1c(I)cccc1C(=O)NC(C)C` [compound 447], for which, in assay [1], the “Insecticidal effect on diamondback moth” value was “A (100)”. Besides, in assay [2], the “Insecticidal effect on common cutworm” value is on record as “B (99-90)”. Moreover, the “Insecticidal effect on rice leafroller” value in assay [3] is recorded as “C (89-80)”.

Consider `Cc1cc(OC(F)(F)Br)ccc1NC(=O)c1c(I)cccc1C(=O)NC(C)C` [compound 452], for which, in assay [1], the “Insecticidal effect on diamondback moth” value is “A (100)”. In addition, the “Insecticidal effect on common cutworm” value in assay [2] was “A (100)”. In assay [3], the “Insecticidal effect on rice leafroller” value is listed as “A (100)”.

For `Cc1cc(OC(F)(F)C(F)F)ccc1NC(=O)c1c(I)cccc1C(=O)NC(C)C` [compound 453], in assay [1], the “Insecticidal effect on diamondback moth” value was “A (100)”. In addition, the “Insecticidal effect on common cutworm” value in assay [2] was “D (79-50)”. Besides, in assay [3], the “Insecticidal effect on rice leafroller” value is on record as “A (100)”.

`Cc1cc(OC(F)(F)C(F)F)c(Cl)cc1NC(=O)c1c(I)cccc1C(=O)NC(C)C` [compound 454]: the “Insecticidal effect on diamondback moth” value in assay [1] is reported as “A (100)”. Further, the “Insecticidal effect on common cutworm” value in assay [2] is recorded as “A (100)”. For the same compound, the “Insecticidal effect on rice leafroller” value in assay [3] is on record as “A (100)”.

Consider `Cc1cc(OC(F)(F)C(F)Cl)ccc1NC(=O)c1c(I)cccc1C(=O)NC(C)C` (stereo not drawn) [compound 455], for which the “Insecticidal effect on diamondback moth” value in assay [1] is reported as “A (100)”. For the same compound, the “Insecticidal effect on common cutworm” value in assay [2] is “B (99-90)”. Also, the “Insecticidal effect on rice leafroller” value in assay [3] is reported as “A (100)”.

As to `Cc1cc(OC(F)(F)C(F)OC(F)(F)F)ccc1NC(=O)c1c(I)cccc1C(=O)NC(C)C` (stereo not drawn) [compound 457], in assay [1], the “Insecticidal effect on diamondback moth” value is listed as “A (100)”. Besides, the “Insecticidal effect on common cutworm” value in assay [2] was “A (100)”. Besides, in assay [3], the “Insecticidal effect on rice leafroller” value is listed as “B (99-90)”.

Consider `CC(C)NC(=O)c1cccc(I)c1C(=O)Nc1ccc(C(F)(F)C(F)(F)C(F)(F)F)cc1Cl` [compound 468], for which the “Insecticidal effect on diamondback moth” value in assay [1] is “A (100)”. Also, in assay [2], the “Insecticidal effect on common cutworm” value is on record as “A (100)”. For the same compound, the “Insecticidal effect on rice leafroller” value in assay [3] is on record as “B (99-90)”.

Consider `Cc1cc(OC(F)F)ccc1NC(=O)c1c(I)cccc1C(=O)NC(C)C` [compound 469], for which, in assay [1], the “Insecticidal effect on diamondback moth” value is recorded as “A (100)”. Further, the “Insecticidal effect on common cutworm” value in assay [2] is reported as “A (100)”. In addition, in assay [3], the “Insecticidal effect on rice leafroller” value is listed as “D (79-50)”.

For `Cc1cc(OC(F)F)c(Cl)cc1NC(=O)c1c(I)cccc1C(=O)NC(C)C` [compound 470], in assay [1], the “Insecticidal effect on diamondback moth” value is recorded as “A (100)”. For the same compound, the “Insecticidal effect on common cutworm” value in assay [2] is recorded as “C (89-80)”. Moreover, in assay [3], the “Insecticidal effect on rice leafroller” value is listed as “C (89-80)”.

Consider `CC(C)NC(=O)c1cccc(I)c1C(=O)Nc1ccc(OC(F)F)c(C(F)(F)F)c1` [compound 471], for which, in assay [1], the “Insecticidal effect on diamondback moth” value is “A (100)”. Besides, in assay [2], the “Insecticidal effect on common cutworm” value is recorded as “A (100)”. Further, the “Insecticidal effect on rice leafroller” value in assay [3] is on record as “A (100)”.

Turning to `CC(C)NC(=O)c1c(F)cccc1C(=O)Nc1ccc(C(F)(F)C(F)(F)C(F)(F)F)cc1` [compound 473], the “Insecticidal effect on diamondback moth” value in assay [1] is recorded as “A (100)”. In addition, in assay [2], the “Insecticidal effect on common cutworm” value was “A (100)”. Also, in assay [3], the “Insecticidal effect on rice leafroller” value is “A (100)”.

In the case of `CC(C)NC(=O)c1c(F)cccc1C(=O)Nc1ccc(C(F)(C(F)(F)F)C(F)(F)F)cc1` [compound 474], the “Insecticidal effect on diamondback moth” value in assay [1] is reported as “A (100)”. Besides, the “Insecticidal effect on common cutworm” value in assay [2] is reported as “B (99-90)”. In addition, in assay [3], the “Insecticidal effect on rice leafroller” value was “A (100)”.

Turning to `CC(C)NC(=O)c1c(F)cccc1C(=O)Nc1ccc(OC(F)(F)C(F)OC(F)(F)C(F)(F)C(F)(F)F)cc1` (stereo not drawn) [compound 476], the “Insecticidal effect on diamondback moth” value in assay [1] was “A (100)”. Also, the “Insecticidal effect on common cutworm” value in assay [2] was “A (100)”. Moreover, in assay [3], the “Insecticidal effect on rice leafroller” value is given as “A (100)”.

As for `CC(C)NC(=O)c1c(F)cccc1C(=O)Nc1ccc(SC(F)(F)C(F)(F)Br)cc1` [compound 480], the “Insecticidal effect on diamondback moth” value in assay [1] is “A (100)”. The “Insecticidal effect on common cutworm” value in assay [2] is “B (99-90)”. Besides, the “Insecticidal effect on rice leafroller” value in assay [3] is “A (100)”.

For `CC(C)NC(=O)c1c(F)cccc1C(=O)Nc1cccc(Cl)c1Cl` [compound 488], in assay [1], the “Insecticidal effect on diamondback moth” value is listed as “A (100)”. Further, in assay [2], the “Insecticidal effect on common cutworm” value was “A (100)”. In addition, the “Insecticidal effect on rice leafroller” value in assay [3] was “A (100)”.

On to `Cc1c(Cl)cccc1NC(=O)c1cccc(F)c1C(=O)NC(C)C` [compound 489], for which, in assay [1], the “Insecticidal effect on diamondback moth” value was “A (100)”. Moreover, the “Insecticidal effect on common cutworm” value in assay [2] is recorded as “A (100)”. The “Insecticidal effect on rice leafroller” value in assay [3] is listed as “A (100)”.

On to `Cc1cc(Cl)ccc1NC(=O)c1cccc(F)c1C(=O)NC(C)C` [compound 490], for which, in assay [1], the “Insecticidal effect on diamondback moth” value is “A (100)”. Also, the “Insecticidal effect on common cutworm” value in assay [2] is “A (100)”. Moreover, in assay [3], the “Insecticidal effect on rice leafroller” value is listed as “A (100)”.

`Cc1ccc(Cl)cc1NC(=O)c1cccc(F)c1C(=O)NC(C)C` [compound 491]: the “Insecticidal effect on diamondback moth” value in assay [1] is recorded as “A (100)”. Moreover, the “Insecticidal effect on common cutworm” value in assay [2] is given as “A (100)”. Moreover, the “Insecticidal effect on rice leafroller” value in assay [3] is listed as “A (100)”.

`Cc1cc(I)ccc1NC(=O)c1cccc(F)c1C(=O)NC(C)C` [compound 492]: the “Insecticidal effect on diamondback moth” value in assay [1] is reported as “A (100)”. The “Insecticidal effect on common cutworm” value in assay [2] is reported as “A (100)”. Further, the “Insecticidal effect on rice leafroller” value in assay [3] is “A (100)”.

On to `Cc1ccc(F)cc1NC(=O)c1cccc(F)c1C(=O)NC(C)C` [compound 493], for which, in assay [1], the “Insecticidal effect on diamondback moth” value is on record as “A (100)”. Moreover, in assay [2], the “Insecticidal effect on common cutworm” value is reported as “A (100)”. The “Insecticidal effect on rice leafroller” value in assay [3] is reported as “A (100)”.

In the case of `Cc1cc(C(F)(F)C(F)(F)F)ccc1NC(=O)c1cccc(F)c1C(=O)NC(C)C` [compound 495], the “Insecticidal effect on diamondback moth” value in assay [1] is reported as “A (100)”. The “Insecticidal effect on common cutworm” value in assay [2] is “A (100)”. In assay [3], the “Insecticidal effect on rice leafroller” value is on record as “A (100)”.
